Tested on: indomethacin induced intestinal injury
Test: Indomethacin-induced Crohn's disease in rats
Assay type: in vivo
Description: The objective of this study was to determine the efficacy of Compound 1 and Compound 2 in a model of Crohn's disease (indomethacin induced intestinal injury) in rats.
The study design was identical for Compound 1 and Compound 2. On study day -3, rats were weighed and distributed into treatment groups based on body weight.
On study day 0, treatment was initiated and continue as indicated in the Study Design Tables below. Groups 2-6 received a subcutaneous injection of indomethacin (9 mg/kg, 1 ml/kg) in 5% sodium bicarbonate (Sterile Water). On study day 1, Groups 2-6 received a second subcutaneous injection of indomethacin (8 mg/kg, 1 ml/kg) in 5% sodium bicarbonate (Sterile Water). Live phase sample & data collection specifics are outlined below. On study day 4, animals will be euthanized, a section of the small intestine will be removed and weighed. Further necropsy sample and data collection is specified below. Overall efficacy of test articles will be based on body weight, small intestine weight (10 cm), small intestine gross score, and histopathology
At necropsy, the small intestines were evaluated visually and given a gross score according to the following criteria: 0=Normal. 0.5=Very Minimal thickening, multifocal in area at risk. 1=Minimal thickening, fairly diffuse in area at risk. 2=Mild to moderate small intestinal/mesenteric thickening throughout area at risk. 3=Moderate thickening with 1 or more definite adhesions that would be easy to separate. 4=Marked thickening with numerous hard to separate adhesions. 5=Severe intestinal lesion resulting in death.
Preserved 9-cm sections of small intestine were trimmed into 6 transverse sections collected at approximately equal intervals along the […] of the intestine, without bias toward lesion presence or absence. These trimmed sections were processed through graded alcohols and a clearing agent, infiltrated and embedded in paraffin, sectioned, and stained with hematoxylin and eosin (H&E).
Small intestine sections from all animals were examined microscopically by a board-certified veterinary pathologist, and observations were entered into a computer-assisted data retrieval system. Cross sections of small intestine were scored for inflammation and necrosis using the following criteria:
The area at risk for development of this lesion is generally approximately 30% of the total area of a cross section of small intestine where the mesentery attaches.
Inflammation is localized to the mesentery and intestinal area at risk for necrosis with slight extension on either side of it. […] In this case, inflammation is scored based on overall severity ranging from 0.5 (very minimal) to 5 (severe) without regard for the extent of necrosis. The mean score for necrosis and inflammation was calculated for each animal and these mean scores were then summed to arrive at a total score. Each section also has a measurement of total width of mucosal necrosis.

[1] = Group 5 (Compound 1: 200 mg/kg PO)
[2] = Groups 4 and 5 (Compound 1: 50 and 200 mg/kg PO)

CCCCCc1cc(O)c(C/C=C(\C)CCC=C(C)C)c(OC)c1 [Compound 1, (E)-2-(3,7-dimethylocta-2,6-dien-1-yl)-3-methoxy-5-pentylphenol]
small intestine gross score compared to vehicle (Group 4 (Compound 1: 50 mg/kg PO)): trend in lower small intestine gross score
histopathology scores vs vehicle and dexamethasone [1]: significantly lower
necrosis width vs vehicle and dexamethasone [1]: significantly lower
Histopathology scores vs vehicle (Group 2) and positive control (Group 3) [2]: trended lower
necrosis width vs vehicle (Group 2) and positive control (Group 3) [2]: trended lower
small intestine gross score compared to vehicle (Groups 5-6 (Compound 1: 200 and 800 mg/kg PO)): significant reductions in gross score
small intestine weight compared to vehicle (all three treatment groups (Groups 4-6), PO days 0-3): significantly lower
body weight change from Study Day -3 (preventing weight loss) (all treatment groups (Groups 4-6), PO days 0-3, in comparison to dexamethasone (Compound 2: and vehicle)): all trended towards or had significant differences in preventing weight loss

From US12433903B2 (priority 2021, dated 2025)
